Data reported in ChEMBL document CHEMBL5634128, “Development of chalcone-like derivatives and their biological and mechanistic investigations as novel influenza nuclear export inhibitors” (Eur J Med Chem, 2023).
Values joined by “and” are separate entries in the source; they are usually repeats but may differ in a detail not shown here. Equal entries are not always repeated. Active and inactive are the calls of the source. No cut-off for these calls is given here.

What was measured:
[1] = (§1) Cytotoxicity against chicken embryo fibroblast cells assessed as reduction in cell growth at 50 uM by CCK-8 assay relative to control; type: toxicity, cell-based, Gallus gallus; parameters: Activity: scale not given: the % may be the effect or the level left; conditions: chicken embryo fibroblast cells, read-out: Activity
Influenza A virus [2] = assay: Anti-influenza activity against Influenza A virus H5N1 infected in chicken embryo fibroblast assessed as reduction in viral growth; type: functional, organism-based
Influenza A virus [3] = assay: Anti-influenza activity against Influenza A virus A/Goose/Guangdong/SH7/2013 (H5N1) infected in chicken embryo fibroblast at MOI 1 assessed as reduction in NP expression in cytoplasm at 10 uM measured after 10 hr post infection by Western blot analysis; type: functional, organism-based
[4] = Binding affinity to influenza A virus M1 assessed as dissociation constant by SPR analysis
Nucleoprotein = Nucleoprotein (Influenza A virus (strain A/Wilson-Smith/1933 H1N1), UniProt P15682); assay: Binding affinity to influenza A virus Nucleoprotein assessed as dissociation constant by SPR analysis
[5] = target: Exportin-1 (Homo sapiens) (UniProt O14980); assay: Inhibition of CRM1-mediated nuclear export in human A549 cells assessed as distribution of GFP-tagged AID in cytoplasm at 20 uM administered for 12 hrs and measured after 24 hrs by fluorescence microscopy analysis; type: cell-based
[6] = target: Exportin-1 (Homo sapiens) (UniProt O14980); assay: Inhibition of CRM1-mediated nuclear export in human A549 cells assessed as distribution of GFP-tagged AID in nucleus at 20 uM administered for 12 hrs and measured after 24 hrs by fluorescence microscopy analysis; type: cell-based; conditions: time 36.0 hrs
Influenza A virus [7] = assay: Anti-influenza activity against Influenza A virus A/Goose/Guangdong/SH7/2013 (H5N1) infected in chicken embryo fibroblast at MOI 1 assessed as reduction in NP expression in nucleus at 10 uM measured after 10 hr post infection by Western blot analysis; type: functional, organism-based
Influenza A virus [8] = assay: Anti-influenza activity against Influenza A virus B/Yamagata infected in chicken embryo fibroblast assessed as reduction in viral growth; type: functional, organism-based
Influenza A virus [9] = assay: Anti-influenza activity against Influenza A virus A/Brisbane/10/2007 infected in chicken embryo fibroblast assessed as reduction in viral growth; type: functional, organism-based; conditions: A/Brisbane/10/2007, Fibroblast
Influenza A virus [10] = assay: Anti-influenza activity against Influenza A virus A/Goose/Guangdong/SH7/2013 (H5N1) infected in chicken embryo fibroblast at MOI 1 assessed as decrease in ratio of cytoplasmic to nuclear NP level at 10 uM measured after 10 hr post infection by Western blot analysis; type: functional, organism-based
[11] = target: Single-stranded DNA cytosine deaminase (Homo sapiens) (UniProt Q9GZX7); assay: Induction of GFP-tagged AID degradation in human A549 cells at 20 uM; type: cell-based
Influenza A virus [12] = assay: Anti-influenza activity against Influenza A virus A/Goose/Guangdong/SH7/2013 (H5N1) infected in chicken embryo fibroblast at MOI 1 assessed as distribution of NP in nucleus at 10 uM measured after 10 hr post infection by DAPI staining based assay; type: functional, organism-based
Influenza A virus [13] = assay: Anti-influenza activity against Influenza A virus B/Victoria infected in chicken embryo fibroblast assessed as reduction in viral growth; type: functional, organism-based
Influenza A virus [14] = assay: Anti-influenza activity against Influenza A virus A/PR/8/34 infected in chicken embryo fibroblast assessed as reduction in viral growth; type: functional, organism-based; conditions: A/PR/8/34, Fibroblast
Influenza A virus [15] = assay: Anti-influenza activity against Influenza A virus pdm09 infected in chicken embryo fibroblast assessed as reduction in viral growth; type: functional, organism-based
[16] = Cytotoxicity against chicken embryo fibroblast cells assessed as reduction in cell growth by CCK-8; type: toxicity, cell-based, Gallus gallus
Influenza A virus [17] = assay: Anti-influenza activity against Influenza A virus A/Goose/Guangdong/SH7/2013 (H5N1) infected in chicken embryo fibroblast assessed as inhibition of virus-induced cytopathic effect; type: functional
Influenza A virus [18] = assay: Anti-influenza activity against Influenza A virus H5N8 infected in chicken embryo fibroblast assessed as reduction in viral growth; type: functional, organism-based
[19] = Binding affinity to influenza A virus NS2 assessed as dissociation constant by SPR analysis
Fibroblast = assay: as §1; type: toxicity, cell-based, Gallus gallus; parameters: Activity: scale not given: the % may be the effect or the level left; conditions: fibroblast, 50 µM

Chain of Exportin-1 (Homo sapiens) (O14980 whole entry): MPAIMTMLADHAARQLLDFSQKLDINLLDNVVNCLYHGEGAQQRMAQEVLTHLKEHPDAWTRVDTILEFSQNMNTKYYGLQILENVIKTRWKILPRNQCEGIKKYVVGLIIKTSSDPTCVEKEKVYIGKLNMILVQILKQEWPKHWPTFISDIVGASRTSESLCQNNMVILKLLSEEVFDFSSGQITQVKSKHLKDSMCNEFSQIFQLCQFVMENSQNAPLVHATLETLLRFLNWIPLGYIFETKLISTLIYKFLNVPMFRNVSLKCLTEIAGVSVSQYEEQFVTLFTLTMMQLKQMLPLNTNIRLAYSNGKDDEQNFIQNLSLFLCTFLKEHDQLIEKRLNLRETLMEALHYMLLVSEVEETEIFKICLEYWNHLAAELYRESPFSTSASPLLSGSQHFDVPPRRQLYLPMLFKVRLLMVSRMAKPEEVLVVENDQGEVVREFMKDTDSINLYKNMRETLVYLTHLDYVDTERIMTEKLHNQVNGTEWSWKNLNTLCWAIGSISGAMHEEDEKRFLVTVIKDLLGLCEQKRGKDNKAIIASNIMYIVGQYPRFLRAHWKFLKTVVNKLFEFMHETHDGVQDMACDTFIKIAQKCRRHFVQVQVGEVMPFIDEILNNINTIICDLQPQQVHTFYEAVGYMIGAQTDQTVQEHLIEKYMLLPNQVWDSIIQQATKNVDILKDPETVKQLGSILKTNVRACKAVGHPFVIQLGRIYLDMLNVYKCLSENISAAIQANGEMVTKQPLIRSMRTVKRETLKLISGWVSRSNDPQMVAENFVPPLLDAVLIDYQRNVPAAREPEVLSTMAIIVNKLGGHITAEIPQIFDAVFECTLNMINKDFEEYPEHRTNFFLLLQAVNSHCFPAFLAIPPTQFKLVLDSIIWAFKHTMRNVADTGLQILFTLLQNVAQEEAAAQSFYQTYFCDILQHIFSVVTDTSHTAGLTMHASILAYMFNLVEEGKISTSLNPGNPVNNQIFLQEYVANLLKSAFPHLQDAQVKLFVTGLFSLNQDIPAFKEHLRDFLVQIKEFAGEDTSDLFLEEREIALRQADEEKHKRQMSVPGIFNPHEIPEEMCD
Chain of Single-stranded DNA cytosine deaminase (Homo sapiens) (Q9GZX7 whole entry): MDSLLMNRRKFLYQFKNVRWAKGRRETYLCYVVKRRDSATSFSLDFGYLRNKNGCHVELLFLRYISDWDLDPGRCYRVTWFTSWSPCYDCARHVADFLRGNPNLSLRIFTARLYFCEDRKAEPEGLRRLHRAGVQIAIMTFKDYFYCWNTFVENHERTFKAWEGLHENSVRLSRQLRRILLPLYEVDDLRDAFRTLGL
Chain of Nucleoprotein (P15682 whole entry): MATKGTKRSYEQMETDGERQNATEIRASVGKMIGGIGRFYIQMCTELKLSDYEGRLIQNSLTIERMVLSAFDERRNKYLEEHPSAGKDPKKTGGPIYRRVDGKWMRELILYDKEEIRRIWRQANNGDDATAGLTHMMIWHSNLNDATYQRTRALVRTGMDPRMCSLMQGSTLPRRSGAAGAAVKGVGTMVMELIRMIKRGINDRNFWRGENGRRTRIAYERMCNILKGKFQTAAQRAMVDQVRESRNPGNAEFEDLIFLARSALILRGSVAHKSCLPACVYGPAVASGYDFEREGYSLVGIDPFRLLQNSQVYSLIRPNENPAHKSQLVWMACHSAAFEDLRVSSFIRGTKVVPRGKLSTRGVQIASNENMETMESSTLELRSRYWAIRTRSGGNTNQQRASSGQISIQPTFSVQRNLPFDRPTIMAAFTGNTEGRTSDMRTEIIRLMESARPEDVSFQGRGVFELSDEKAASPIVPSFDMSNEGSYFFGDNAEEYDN

Row | Compound | percent cell viability relative to control at 50 µM [1] [%] | EC50 (Influenza A virus [2]) [µM] | EC50 (Influenza A virus [8]) [µM] | EC50 (Influenza A virus [9]) [µM] | EC50 (Influenza A virus [13]) [µM] | EC50 (Influenza A virus [14]) [µM] | EC50 (Influenza A virus [15]) [µM] | CC50 [16] [µM] | inhibition (INH) (Influenza A virus [17]) | EC50 (Influenza A virus [18]) [µM] | Activity (Fibroblast) [%] | further results
1 | CCOc1ccc(/C=C/C(=O)/C=C/c2c(OC)cccc2OC)cc1 | 117 | 14.9 | 4.82 | 3.69 | 3.13 | 7.31 | 4.56 | > 100 | 51.33% | 9.6 | – | Activity (Influenza A virus [3]): Active; Kd [4]: Not Active; Kd (Nucleoprotein): 0.239 µM; inhibition [5]: inactive; inhibition [6]: inactive; Activity (Influenza A virus [7]): Active; Activity (Influenza A virus [10]): Active; Activity [11]: Active; Activity (Influenza A virus [12]): Active; Kd [19]: Not Active
2 | CCC(CC)O[C@@H]1C=C(C(=O)O)C[C@H](N)[C@H]1NC(C)=O [OSELTAMIVIR CARBOXYLATE] | 100 | 5.7 | 0.98 | 1.08 | 2.43 | 3.08 | > 100 | > 100 | 98.5% and 97.3% | 6.49 | 105.08 | –
3 | COc1cccc(OC)c1/C=C/C(=O)/C=C/c1ccc(-c2ccncc2)cc1 | – | – | – | – | – | – | – | – | 26.05% | – | 153.71 | –
